# Where two headings read alike, the source gives them in different places.
# Experiments:
# [1] = test system: Staphylococcus aureus NCTC 10442; experiment: Blocking experiments with Nα,Nε-diacetyl-Lys-D-Ala-D-Ala in microdilution; type: cell-based; conditions: at least 100-fold excess of Nα,Nε-Diacetyl-Lys-D-Ala-D-Ala, pre-incubation minimum 1 hour at room temperature
# Method: (§1) Antimicrobial testing – Microdilution
# (§2) Antimicrobial testing was performed according to CLSI and EUCAST guidelines in microdilution.8-10 Therefore, all tested substances as well as controls were dissolved in water in different concentrations and serially diluted in MHB II (cation adjusted) on the 96-well plate. A logarithmic growing, overnight culture of the respective bacterial strain was used and adjusted to a McFarland corresponding to 1 × 10^8 cfu/ml. Afterwards the bacterial suspension was diluted to 1 ×10^6 cfu/ml and loaded on the 96-well polypropylene plates, resulting in a final bacterial concentration of 5 × 10^5 cfu/ml. After an incubation at 35 ± 1 °C for 18-20 hours (re-controlled after 24 hours) the MIC was determined as the lowest concentration without visible growth as described previously.11 For direct comparison of the tested substances, all results were calculated in mg/ml and mol/ml afterwards.
# For blocking experiments with NΑ,NΕ-DIACETYL-LYS-D-ALA-D-ALA the tested substances were incubated directly on the dilution plate with at least 100-fold excess of Nα,Nε-Diacetyl-Lys-D-Ala-D-Ala for a minimum of 1 hour at room temperature. Afterwards, the procedure was performed as described above. As further control substance, the glycopeptide antibiotic teicoplanin was evaluated. […] Resistance development in S. aureus was determined by passaging bacteria in increasing amounts of vancomycin, FU002 or, as control, fusidic acid. In principle, tubes with twofold dilutions of the compounds in 1 ml Muller Hinton broth were inoculated 1:100 with bacterial suspension. The tubes were then incubated for 24 h at 37 °C under shaking. After each passage, the tube with the highest compound concentration showing bacterial growth was used to inoculate the tubes of the next passage (1:100). The tube with the lowest compound concentration showing no growth was defined as the passage MIC. […]
# For the validation of possible side effects provoked by the conjugates, the cytotoxic effect of the lead candidate FU002 on human cells was assessed in a colorimetric viability assay. […]
# [2] = test system: Staphylococcus aureus USA300 LAC; experiment: microbe, parasite or virus in culture; type: cell-based; conditions: Staphylococcus aureus, MRSA / USA300, 24 h
# Method: as §1
# as §2, with “afterwards. […]” for “afterwards.”
# Resistance development study
# Resistance development in S. aureus was determined by passaging bacteria in increasing amounts of vancomycin, FU002 or, as control, fusidic acid. In principle, tubes with twofold dilutions of the compounds in 1 ml Muller Hinton broth were inoculated 1:100 with bacterial suspension. The tubes were then incubated for 24 h at 37 °C under shaking. After each passage, the tube with the highest compound concentration showing bacterial growth was used to inoculate the tubes of the next passage (1:100). The tube with the lowest compound concentration showing no growth was defined as the passage MIC. Passaging was stopped after 8 passages.
# For the validation of possible side effects provoked by the conjugates, the cytotoxic effect of the lead candidate FU002 on human cells was assessed in a colorimetric viability assay. Different human cell types were used including kidney and liver cell lines as well as freshly isolated peripheral blood cells. Cells were seeded into 96-well microtiter plates at 2 x 10^4 cells/well and cultured overnight (18-24 h) in a […]
Molecule,effect of D-Ala-D-Ala binding motif on antibiotic activity [1],MIC ([2]; read-out: MIC after 8 passages),MIC ([2]; read-out: initial MIC)
teicoplanin,suppresses the antibiotic activity,,
CC(=O)O[C@H]1C[C@@]2(C)[C@@H](C[C@@H](O)[C@H]3[C@@]4(C)CC[C@@H](O)[C@@H](C)[C@@H]4CC[C@@]32C)/C1=C(\CCC=C(C)C)C(=O)O [fusidic acid],,64 µg/mL,0.125 µg/mL
